Assay results from patent publication US20230398101A1, “Co-agents as Therapy Against Anaerobic Pathogens” (priority 2022, published 2023).
Like-named read-outs stand apart in the source and are kept apart here.

Key:
Type in all cases: cell-based
[1] = test system: Clostridium perfringens; test: microbe, parasite or virus in culture; details: for MIC vs clinical breakpoint (susceptibility): anaerobic (Table 17)
[2] = test system: Clostridioides difficile; test: Anaerobic agar-dilution AST (MIC, checkerboard FIC); details: for MIC vs clinical breakpoint (susceptibility): anaerobic (Table 17)
[3] = test system: Bifidobacterium animalis; test: as above
[4] = test system: Peptostreptococcus anaerobius; test: as above; details: Peptostreptococcus anaerobious 807256
[5] = test system: Cutibacterium acnes; test: as above
[6] = test system: Bacteroides fragilis; test: as above; details: for MIC vs clinical breakpoint (susceptibility): anaerobic (Table 17)
[7] = test system: Phocaeicola vulgatus; test: as above; details: for MIC vs clinical breakpoint (susceptibility): anaerobic (Table 17)
[8] = test system: Prevotella intermedia; test: as above
[9] = test system: Porphyromonas gingivalis; test: as above; details: ATCC33277
[10] = test system: Staphylococcus aureus; test: Aerobic agar-dilution AST of facultative anaerobes (MIC, checkerboard FIC); details: Staphylococcus aureus, read-out: MIC
[11] = test system: Lactobacillus gasseri; test: AST (MIC) of beneficial or mutualistic facultative anaerobic bacteria
[12] = test system: Lactobacillus paracasei; test: as above; details: Lacticaseibacillus paracasei
[13] = test system: Lactobacillus plantarum; test: as above; details: Lactiplantibacillus plantarum
[14] = test system: Leuconostoc mesenteroides; test: as above
[15] = test system: Pediococcus pentosaceus; test: as above
[16] = test system: Enterococcus faecalis; test: Aerobic agar-dilution AST of facultative anaerobes (MIC, checkerboard FIC)
[17] = test system: Enterococcus faecium; test: Aerobic agar-dilution AST of facultative anaerobes (MIC, checkerboard FIC), also at pH 5, 7, 8; details: Enterococcus faecium 51559
[18] = test system: facultative anaerobic pathogens; test: microbe, parasite or virus in culture

In the case of `C[C@@H]1O[C@@H]1P(=O)(O)O` [F, fosfomycin sodium], the “MIC vs clinical breakpoint (susceptibility)” value (“MIC vs clinical breakpoint” for short) ([1]; Clostridium perfringens 2-0246-4) is reported as “+”, the “MIC vs clinical breakpoint” value ([1]; Clostridium perfringens 11-46) is reported as “+” and the “MIC vs clinical breakpoint” value ([1]; Clostridium perfringens 11-50) is reported as “+”. For the same compound, the “MIC vs clinical breakpoint” value ([1]; Clostridium perfringens 11-61) was “+”, the MIC ([1]; Clostridium perfringens 12-117, anaerobic) was 16 µg/mL and the “MIC vs clinical breakpoint” value ([1]; Clostridium perfringens 12-117) was “+”. For the same compound, the MIC ([1]; Clostridium perfringens, Clostridium perfringens 11-46, anaerobic) was 32 µg/mL, the MIC ([1]; Clostridium perfringens, Clostridium perfringens 11-50, anaerobic) was 8 µg/mL and the MIC ([1]; Clostridium perfringens, Clostridium perfringens 11-61, anaerobic) was 16 µg/mL. The MIC ([1]; Clostridium perfringens, Clostridium perfringens 12-117, anaerobic) was 32 µg/mL, the MIC ([1]; Clostridium perfringens, strain 2-0246-4, anaerobic) was 16 µg/mL and the MIC ([1]; Clostridium perfringens, strain 11-50, anaerobic) was 16 µg/mL. For the same compound, the MIC ([1]; Clostridium perfringens, strain 12-117, anaerobic) was 32 µg/mL, the MIC ([1]; strain 2-0246-4, anaerobic) was 8 µg/mL and the MIC ([1]; strain 11-50, anaerobic) was 8 µg/mL. For the same compound, the MIC ([1]; strain 12-117, anaerobic) was 16 µg/mL, the “MIC vs clinical breakpoint” value ([2]; Clostridioides difficile 2-0247-4) was “+” and the “MIC vs clinical breakpoint” value ([2]; Clostridioides difficile 3/8) was “+”. For the same compound, the “MIC vs clinical breakpoint” value ([2]; Clostridioides difficile 10-3620-5) was “+”, the MIC ([2]; Clostridioides difficile, Clostridioides difficile 3/8, anaerobic, read-out: MIC) was 32 µg/mL and the MIC ([2]; Clostridioides difficile, Clostridioides difficile 10-3620-5, anaerobic) was 16 µg/mL. For the same compound, the MIC ([2]; Clostridioides difficile, strain 2-0247-4, anaerobic, read-out: MIC) was 16 µg/mL, the MIC ([2]; Clostridioides difficile, strain 10-3620-5, anaerobic, read-out: MIC) was 8 µg/mL and the MIC ([2]; strain 2-0247-4, anaerobic) was 32 µg/mL. The MIC ([2]; strain 10-3620-5, anaerobic) was 16 µg/mL, the MIC ([3]; Bifidobacterium animalis) was 128 µg/mL and the “MIC vs clinical breakpoint” value ([3]; Bifidobacterium animalis JLP-002, anaerobic (Table 17)) was “−”. For the same compound, the MIC ([3]; Bifidobacterium animalis TBC0002, anaerobic) was 32 µg/mL, the MIC ([3]; Bifidobacterium animalis, Bifidobacterium animalis TBC0002, anaerobic, read-out: MIC) was 64 µg/mL and the susceptibility ([3]; Bifidobacterium, anaerobic) was “no susceptibility”. For the same compound, the MIC ([3]; strain TBC0002, anaerobic) was 128 µg/mL, the “MIC vs clinical breakpoint” value ([4]; anaerobic (Table 17)) was “+” and the MIC ([4]; Peptostreptococcus anaerobius, anaerobic) was 16 µg/mL. For the same compound, the MIC ([5]; Cutibacterium acnes) was 128 µg/mL, the “MIC vs clinical breakpoint” value ([5]; Cutibacterium acnes 6609, anaerobic (Table 17)) was “+” and the MIC ([5]; Cutibacterium acnes, Cutibacterium acnes 6609, anaerobic, read-out: MIC) was 64 µg/mL. For the same compound, the MIC ([5]; Cutibacterium acnes, strain 6609, anaerobic, read-out: MIC) was 32 µg/mL, the MIC ([5]; strain 6609, anaerobic) was 64 µg/mL and the MIC ([6]; ATCC25285, Bacteroides fragilis ATCC 25285, anaerobic, read-out: MIC) was 64 µg/mL. The “MIC vs clinical breakpoint” value ([6]; Bacteroides fragilis 638R) was “−”, the “MIC vs clinical breakpoint” value ([6]; Bacteroides fragilis ATCC 23745) was “−” and the “MIC vs clinical breakpoint” value ([6]; Bacteroides fragilis ATCC 25285) was “−”. For the same compound, the “MIC vs clinical breakpoint” value ([6]; Bacteroides fragilis CLA267) was “−”, the “MIC vs clinical breakpoint” value ([6]; Bacteroides fragilis O16M) was “−” and the MIC ([6]; Bacteroides fragilis, ATCC23745, Bacteroides fragilis ATCC 23745, anaerobic) was > 128 µg/mL. For the same compound, the MIC ([6]; Bacteroides fragilis, ATCC23745, strain ATCC 23745, anaerobic) was > 128 µg/mL, the MIC ([6]; Bacteroides fragilis, ATCC25285, Bacteroides fragilis ATCC 25285, anaerobic) was > 128 µg/mL and the MIC ([6]; Bacteroides fragilis, ATCC25285, strain ATCC 25285, anaerobic) was > 128 µg/mL. The MIC ([6]; Bacteroides fragilis, Bacteroides fragilis 016M, anaerobic) was > 128 µg/mL, the MIC ([6]; Bacteroides fragilis, Bacteroides fragilis 638R, anaerobic) was > 128 µg/mL and the MIC ([6]; Bacteroides fragilis, Bacteroides fragilis CLA 267, anaerobic) was > 128 µg/mL. The MIC ([6]; Bacteroides fragilis, strain 638R, anaerobic) was > 128 µg/mL, the MIC ([6]; Bacteroides fragilis, strain CLA267, anaerobic) was > 128 µg/mL and the MIC ([6]; Bacteroides fragilis, strain O16M (016M), anaerobic) was > 128 µg/mL. The MIC ([6]; strain ATCC 25285, anaerobic) was 128 µg/mL, the MIC ([6]; strain CLA267, anaerobic) was 128 µg/mL and the “MIC vs clinical breakpoint” value ([7]; Phocaeicola vulgatus ATCC 8482) was “−”. The “MIC vs clinical breakpoint” value ([7]; Phocaeicola vulgatus ATCC 29327) was “−”, the MIC ([7]; Phocaeicola vulgatus, ATCC8482, strain ATCC 8482, anaerobic) was > 128 µg/mL and the MIC ([7]; Phocaeicola vulgatus, ATCC29327, Phacoeicola vulgatus ATCC 29327, anaerobic) was 128 µg/mL. For the same compound, the MIC ([7]; Phocaeicola vulgatus, ATCC29327, strain ATCC 29327, anaerobic) was > 128 µg/mL, the MIC ([7]; Phocaeicola vulgatus, ATCC29327, strain ATCC 29327, anaerobic, read-out: MIC) was 64 µg/mL and the MIC ([7]; Phocaeicola vulgatus, Phacoeicola vulgatus TCC 8482, anaerobic) was > 128 µg/mL. For the same compound, the MIC ([7]; strain ATCC 8482, anaerobic) was 128 µg/mL, the MIC ([8]; Prevotella intermedia, Prevotella intermedia 8071621, anaerobic) was > 128 µg/mL and the MIC ([8]; Prevotella intermedia, strain 807114, anaerobic) was > 128 µg/mL. The MIC ([8]; Prevotella intermedia, strain 8071621, anaerobic) was > 128 µg/mL, the MIC ([8]; Prevotella intermedia, strain 8071621, anaerobic, read-out: MIC) was 64 µg/mL and the MIC ([8]; strain 8071621, anaerobic) was 128 µg/mL. The MIC [9] was > 128 µg/mL, the MIC ([10]; ATCC33591, Staphylococcus aureus ATCC 33591 (Table 15)) was 4 µg/mL and the MIC ([10]; Staphylococcus aureus 829025) was 8 µg/mL. The MIC ([10]; Staphylococcus aureus 894946) was 8 µg/mL, the MIC ([10]; Staphylococcus aureus 920576) was 8 µg/mL and the MIC ([10]; Staphylococcus aureus 920962) was 8 µg/mL. The MIC ([10]; Staphylococcus aureus 927596) was 8 µg/mL, the MIC ([10]; Staphylococcus aureus 952566 (Table 15)) was > 16 µg/mL and the MIC ([10]; Staphylococcus aureus 952566 (Tables 14A/14B)) was 8 µg/mL. It also gave an MIC ([10]; Staphylococcus aureus 953041 (Table 15)) of 4 µg/mL, an MIC ([10]; Staphylococcus aureus 956270) of 8 µg/mL and an MIC ([10]; Staphylococcus aureus 956362) of 8 µg/mL. It also gave an MIC ([10]; Staphylococcus aureus 981550 (Table 15)) of 16 µg/mL, an MIC ([10]; Staphylococcus aureus 981550 (Tables 14A/14B)) of 8 µg/mL and an MIC ([10]; Staphylococcus aureus 994946) of 2 µg/mL. For the same compound, the MIC ([10]; Staphylococcus aureus 1022425) was 16 µg/mL, the MIC ([10]; Staphylococcus aureus 1045190) was 8 µg/mL and the MIC ([10]; strain (MR) 829025, aerobic) was 4 µg/mL. For the same compound, the MIC ([10]; strain (MR) 884649, aerobic) was 8 µg/mL, the MIC ([10]; strain (MR) 903887, aerobic) was 8 µg/mL and the MIC ([10]; strain (MR) 918019, aerobic) was 4 µg/mL. The MIC ([10]; strain (MR) 920516, aerobic) was 4 µg/mL, the MIC ([10]; strain (MR) 927596, aerobic) was 8 µg/mL and the MIC ([10]; strain (MR) 956270, aerobic) was 4 µg/mL. It also gave an MIC ([10]; strain (MR) 956362, aerobic) of 8 µg/mL, an MIC ([10]; strain (MR) 967287, aerobic) of 8 µg/mL and an MIC ([10]; strain (MR) 974980, aerobic) of 8 µg/mL. It also gave an MIC ([10]; strain (MR) 979234, aerobic) of 8 µg/mL, an MIC ([10]; strain (MR) 981550, aerobic) of 4 µg/mL and an MIC ([10]; strain (MR) 1022425, aerobic) of 8 µg/mL. For the same compound, the MIC ([10]; strain (MR) 1045190, aerobic) was 4 µg/mL, the MIC [11] was > 128 µg/mL and the MIC [12] was > 128 µg/mL. For the same compound, the MIC [13] was > 128 µg/mL, the MIC [14] was > 128 µg/mL and the MIC [15] was > 128 µg/mL. For the same compound, the MIC ([16]; Enterococcus faecalis) was > 128 µg/mL, the MIC ([16]; Enterococcus faecalis 108, pH 5, read-out: MIC) was 8000 µg/mL and the MIC ([16]; Enterococcus faecalis 1086432, pH 7, read-out: MIC) was 64000 µg/mL. For the same compound, the MIC ([16]; Enterococcus faecalis, ATCC51559) was > 128 µg/mL, the MIC ([17]; pH 5) was 16000 µg/mL and the MIC ([17]; pH 8) was 64000 µg/mL. The MIC ([18]; Bacillus cereus, ATCC14579, pH 7, read-out: MIC) was 64000 µg/mL, the MIC ([18]; Bacillus cereus, ATCC14579, pH 8, read-out: MIC) was 32000 µg/mL and the MIC ([18]; Bacillus cereus, pH 5, read-out: MIC) was 4000 µg/mL. It also gave an MIC ([18]; Bacillus subtilis, pH 5, read-out: MIC) of 64000 µg/mL, an MIC ([18]; Yersinia pseudotuberculosis, ATCC6905, pH 7) of 64000 µg/mL and an MIC ([18]; Yersinia pseudotuberculosis, pH 5) of 2000 µg/mL.
